In article PMC12638251, “Uridine-sensitized screening identifies demethoxy-coenzyme Q and NUDT5 as regulators of nucleotide synthesis” (Nature Metabolism, 2025) one finds IC50 data, which are given here for one molecule.

For this experiment, the target named is T1, PPAT (amidophosphoribosyltransferase) (Homo sapiens, UniProt Q06203).
T1 construct: with NUDT5
In words: native PAGE of K562 lysate with PRPP dose curve (loss of NUDT5-PPAT oligomer); co-immunoprecipitation with […] PRPP. Format: biochemical.

pIC50: −log10 of the molar value.

Broadly, the pIC50 is −log10 of the IC50, conventionally taken in molar units. Lower therefore signals a large IC50.

T1 sequence (Q06203 12-517): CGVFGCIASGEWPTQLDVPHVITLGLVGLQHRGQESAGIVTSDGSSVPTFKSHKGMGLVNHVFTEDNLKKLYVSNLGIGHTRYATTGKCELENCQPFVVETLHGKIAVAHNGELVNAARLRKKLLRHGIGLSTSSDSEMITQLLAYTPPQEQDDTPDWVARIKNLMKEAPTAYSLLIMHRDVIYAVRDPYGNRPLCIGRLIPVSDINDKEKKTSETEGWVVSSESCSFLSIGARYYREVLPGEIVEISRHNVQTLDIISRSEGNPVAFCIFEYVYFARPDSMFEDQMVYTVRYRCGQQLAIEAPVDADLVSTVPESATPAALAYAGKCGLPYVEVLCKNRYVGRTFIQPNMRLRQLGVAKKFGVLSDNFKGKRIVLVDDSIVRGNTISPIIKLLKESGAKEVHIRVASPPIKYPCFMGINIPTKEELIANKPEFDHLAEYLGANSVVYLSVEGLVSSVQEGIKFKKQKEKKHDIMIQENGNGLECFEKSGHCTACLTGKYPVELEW
T1 sequence (O95848 whole entry partner): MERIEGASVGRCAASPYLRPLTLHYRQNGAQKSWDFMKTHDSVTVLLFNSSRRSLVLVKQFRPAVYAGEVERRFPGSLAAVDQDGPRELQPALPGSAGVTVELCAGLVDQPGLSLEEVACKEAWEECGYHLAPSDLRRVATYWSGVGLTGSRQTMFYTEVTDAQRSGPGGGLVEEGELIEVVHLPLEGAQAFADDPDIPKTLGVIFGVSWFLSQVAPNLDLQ

`O=P(O)(O)OC[C@H]1OC(OP(=O)(O)OP(=O)(O)O)[C@H](O)[C@@H]1O` (stereo partly shown) [PRPP, phosphoribosyl pyrophosphate] showed a pIC50 of 4.00.
